# Test results from patent US20060069132A1, “Azolecarboxamide herbicides” (priority 2004, published 2006).
# Assays:
# cocklebur = test: Test C pre-/postemergence herbicide test; format: in vivo, Xanthium strumarium; settings: for Cocklebur plant response rating: 500 g ai/ha
# Summary of the method: (§1)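 Visual ratings on a 0–100 scale (100 = complete control) made versus untreated controls after 12 to 14 greenhouse days. Test chemicals, formulated in surfactant-containing non-phytotoxic solvent, applied preemergence to planted seeds or postemergence to 1- to 4-leaf plants (2 to 18 cm).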
# bermudagrass = test: Test C pre-/postemergence herbicide test; format: in vivo, Cynodon dactylon; settings: for Bermudagrass plant response rating: 500 g ai/ha
# Summary of the method: as §1
# corn = test: Test C pre-/postemergence herbicide test; format: in vivo, Zea mays; settings: for Corn plant response rating: 500 g ai/ha
# Summary of the method: as §1
# velvetleaf = test: Test A pre-/postemergence herbicide test; format: in vivo, Abutilon theophrasti
# Summary of the method: (§2)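 Visual injury scores on a 0–100 scale (100 = complete control) taken about ten days post-treatment in greenhouse against untreated controls; dash means no result. Treatments: preemergence soil spray and postemergence spray to runoff on one- to two-leaf plants 2 to 10 cm tall, surfactant-containing formulation.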
# large crabgrass [1] = test: Test A pre-/postemergence herbicide test; format: in vivo, Digitaria sanguinalis
# Summary of the method: as §2
# goosegrass = test: Test C pre-/postemergence herbicide test; format: in vivo, Eleusine indica; settings: for Goosegrass plant response rating: 500 g ai/ha
# Summary of the method: as §1
# kochia = test: Test C pre-/postemergence herbicide test; format: in vivo, Kochia scoparia; settings: for Kochia plant response rating: 500 g ai/ha
# Summary of the method: as §1
# Surinam grass = test: Test C pre-/postemergence herbicide test; format: in vivo, Urochloa decumbens; settings: for Surinam Grass plant response rating: 500 g ai/ha
# Summary of the method: as §1
# large crabgrass [2] = test: Test C pre-/postemergence herbicide test; format: in vivo, Digitaria sanguinalis; settings: for Crabgrass, Large plant response rating: 500 g ai/ha
# Summary of the method: as §1
# barnyardgrass = test: Test A pre-/postemergence herbicide test; format: in vivo, Echinochloa crus-galli
# Summary of the method: as §2
# giant foxtail = test: Test C pre-/postemergence herbicide test; format: in vivo, Setaria faberi; settings: for Foxtail, Giant plant response rating: 500 g ai/ha
# Summary of the method: as §1
# [3] = Postemergence, 250 g ai/ha, scale 0 to 100, 0 no effect, 100 complete control
# [4] = postemergence, 125 g ai/ha, scale 0 to 100
# [5] = postemergence, 62 g ai/ha, scale 0 to 100
# [6] = Postemergence, 500 g ai/ha, 0 to 100 scale, 0 no effect, 100 complete control
# [7] = Postemergence, 2000 g ai/ha, 0 to 100 scale, 0 no effect, 100 complete control
# [8] = Preemergence, 2000 g ai/ha, visual rating, 0 to 100 scale (0 no effect, 100 complete control)
# [9] = preemergence, 500 g ai/ha, visual injury, 0 to 100 scale (0 no effect, 100 complete control)
# [10] = Preemergence, 500 g ai/ha, visual rating, 0 to 100 scale (0 no effect, 100 complete control)
# [11] = Preemergence, 2000 g ai/ha, 0 to 100 scale, 0 no effect, 100 complete control
smiles,measurement,setting,value
CCn1nc(C(C)(C)C)cc1C(=O)Nc1cccc(OC(F)(F)F)c1 [Compound 272],Cocklebur plant response rating,"cocklebur; Postemergence, scale 0 to 100",95
same,"Plant response rating, Cocklebur",cocklebur; [3],60
same,"Plant response rating, Cocklebur",cocklebur; [4],60
same,"Plant response rating, Cocklebur",cocklebur; [5],15
same,Bermudagrass plant response rating,"bermudagrass; Postemergence, scale 0 to 100",100
same,"Plant response rating, Bermudagrass",bermudagrass; [3],100
same,"Plant response rating, Bermudagrass",bermudagrass; [4],80
same,"Plant response rating, Bermudagrass",bermudagrass; [5],50
same,Corn plant response rating,"corn; Postemergence, scale 0 to 100",20
same,"Plant response rating, Corn",corn; [3],15
same,"Plant response rating, Corn",corn; [4],15
same,"Plant response rating, Corn",corn; [5],10
same,Velvetleaf plant response rating,velvetleaf; [6],100
same,"Plant response rating, Velvetleaf",velvetleaf; [7],100
same,Velvetleaf plant response rating,velvetleaf; [8],60
same,Velvetleaf plant response rating,velvetleaf; [9],15
same,"Crabgrass, Large plant response rating",large crabgrass [1]; [6],55
same,"Plant response rating, Crabgrass, Large",large crabgrass [1]; [7],90
same,"Crabgrass, Large plant response rating",large crabgrass [1]; [8],100
same,"Crabgrass, Large plant response rating",large crabgrass [1]; [9],85
same,Goosegrass plant response rating,"goosegrass; Postemergence, scale 0 to 100",80
same,"Plant response rating, Goosegrass",goosegrass; [3],75
same,"Plant response rating, Goosegrass",goosegrass; [4],65
same,"Plant response rating, Goosegrass",goosegrass; [5],20
same,Kochia plant response rating,"kochia; Postemergence, scale 0 to 100",100
same,"Plant response rating, Kochia",kochia; [3],100
same,"Plant response rating, Kochia",kochia; [4],100
same,"Plant response rating, Kochia",kochia; [5],95
same,Surinam Grass plant response rating,"Surinam grass; Postemergence, scale 0 to 100",60
same,"Plant response rating, Surinam Grass",Surinam grass; [3],35
same,"Plant response rating, Surinam Grass",Surinam grass; [4],10
same,"Plant response rating, Surinam Grass",Surinam grass; [5],5
same,"Crabgrass, Large plant response rating","large crabgrass [2]; Postemergence, scale 0 to 100",95
same,"Plant response rating, Crabgrass, Large",large crabgrass [2]; [3],80
same,"Plant response rating, Crabgrass, Large",large crabgrass [2]; [4],80
same,"Plant response rating, Crabgrass, Large",large crabgrass [2]; [5],40
same,Barnyardgrass plant response rating,barnyardgrass; [6],55
same,"Plant response rating, Barnyardgrass",barnyardgrass; [7],90
same,Barnyardgrass plant response rating,barnyardgrass; [8],100
same,Barnyardgrass plant response rating,barnyardgrass; [9],70
same,"Foxtail, Giant plant response rating","giant foxtail; Postemergence, scale 0 to 100",75
same,"Plant response rating, Foxtail, Giant",giant foxtail; [3],60
same,"Plant response rating, Foxtail, Giant",giant foxtail; [4],45
same,"Plant response rating, Foxtail, Giant",giant foxtail; [5],15
C=CCOC(=O)c1cccc(NC(=O)c2cc(C(C)(C)C)nn2CC)c1 [Compound 85],Cocklebur plant response rating,"cocklebur; Postemergence, scale 0 to 100",100
same,"Plant response rating, Cocklebur",cocklebur; [3],100
same,"Plant response rating, Cocklebur",cocklebur; [4],80
same,"Plant response rating, Cocklebur",cocklebur; [5],20
same,Bermudagrass plant response rating,"bermudagrass; Postemergence, scale 0 to 100",70
same,"Plant response rating, Bermudagrass",bermudagrass; [4],65
same,"Plant response rating, Bermudagrass",bermudagrass; [5],0
same,Corn plant response rating,"corn; Postemergence, scale 0 to 100",45
same,"Plant response rating, Corn",corn; [3],35
same,"Plant response rating, Corn",corn; [4],30
same,"Plant response rating, Corn",corn; [5],30
same,Velvetleaf plant response rating,velvetleaf; [6],30
same,"Plant response rating, Velvetleaf",velvetleaf; [7],20
same,Velvetleaf plant response rating,velvetleaf; [10],0
same,Velvetleaf plant response rating,velvetleaf; [8],0
same,"Crabgrass, Large plant response rating",large crabgrass [1]; [6],20
same,"Plant response rating, Crabgrass, Large",large crabgrass [1]; [7],30
same,"Crabgrass, Large plant response rating",large crabgrass [1]; [10],0
same,"Crabgrass, Large plant response rating",large crabgrass [1]; [11],5
same,Goosegrass plant response rating,"goosegrass; Postemergence, scale 0 to 100",60
same,"Plant response rating, Goosegrass",goosegrass; [3],60
same,"Plant response rating, Goosegrass",goosegrass; [4],40
same,"Plant response rating, Goosegrass",goosegrass; [5],35
same,Kochia plant response rating,"kochia; Postemergence, scale 0 to 100",90
same,"Plant response rating, Kochia",kochia; [3],90
same,"Plant response rating, Kochia",kochia; [4],60
same,"Plant response rating, Kochia",kochia; [5],20
same,Surinam Grass plant response rating,"Surinam grass; Postemergence, scale 0 to 100",80
same,"Plant response rating, Surinam Grass",Surinam grass; [3],80
same,"Plant response rating, Surinam Grass",Surinam grass; [4],30
same,"Plant response rating, Surinam Grass",Surinam grass; [5],25
same,"Crabgrass, Large plant response rating","large crabgrass [2]; Postemergence, scale 0 to 100",40
same,"Plant response rating, Crabgrass, Large",large crabgrass [2]; [3],10
same,"Plant response rating, Crabgrass, Large",large crabgrass [2]; [4],5
same,"Plant response rating, Crabgrass, Large",large crabgrass [2]; [5],0
same,Barnyardgrass plant response rating,barnyardgrass; [6],20
same,"Plant response rating, Barnyardgrass",barnyardgrass; [7],25
same,Barnyardgrass plant response rating,barnyardgrass; [10],0
same,Barnyardgrass plant response rating,barnyardgrass; [11],0
same,"Foxtail, Giant plant response rating","giant foxtail; Postemergence, scale 0 to 100",70
same,"Plant response rating, Foxtail, Giant",giant foxtail; [3],50
same,"Plant response rating, Foxtail, Giant",giant foxtail; [4],20
same,"Plant response rating, Foxtail, Giant",giant foxtail; [5],10
